Experimental data reported in ChEMBL document CHEMBL1157898 (Bioorg Med Chem Lett, 2010).

Tested on: H4
Assay: Toxicity in human H4 cells at 10 uM
Format: cell-based
Conditions: h4, 10 µM

Compound COc1cc(OC)c(C=C2C(O)=Nc3ccccc32)c(OC)c1 [IC261] has an Activity of 40 µM.
